In experiment [1] the test system is prostate cancer. As to conditions: cited from earlier work.
In experiment [2] the test system is PSMA+ LNCaP cells. Put plainly: cell surface binding and internalization of radiolabeled compounds. Format: cell-based. The note with it: 68Ga-labeled. On the procedure:
(§1) PSMA^+ LNCaP cells (ATCC CRL-1740) were cultured in RPMI medium. Cells were grown at 37° C. in humidified air with 5% C02 and were harvested using trypsin-ethylenediaminetetraacetic acid.
(§2) The competitive cell binding assay and internalization experiments were performed according to Eder M et al. (2012), Bioconjug Chem 23(4):688.
For internalization experiments, 10^5 cells per well were seeded in poly-L-lysine coated 24-well cell culture plates 24 h before incubation. After washing, the cells were incubated with 30 nM of the ^68Ga- or ^177Lu-radiolabeled compound for 45 min at 37° C. and at 4° C., respectively. Cellular uptake was terminated by washing 3 times with 1 mL of ice-cold PBS. To remove surface-bound radioactivity, cells were incubated twice with 0.5 mL glycine-HCl in PBS (50 mM, pH=2.8) for 5 min. The cells were washed with 1 mL of ice-cold PBS and lysed using 0.3 N NaOH (0.5 mL). The surface-bound and the internalized fractions were measured in a gamma counter. The cell uptake was calculated as percent of the initially added radioactivity bound to 10^5 cells [% ID/10^5 cells].

The target of experiment [3] is T1, PSMA (Homo sapiens, UniProt Q04609).
T1 construct: host or cells: LNCaP cells
The experiment in a line: competitive cell binding assay vs 68Ga-labeled PSMA-10 on LNCaP cells. As to conditions: LNCaP cells, 0.8 nM 68Ga-PSMA-10 radioligand; read-out: Specific Binding Affinity IC50. On the procedure:
as §1, §2
Briefly, the cells (10^5 per well) were incubated with a 0.8 nM solution of ^68Ga-labeled radioligand [Glu-urea-Lys(Ahx)]2-HBED-CC (PSMA-10, precursor ordered from ABX, Radeberg, Germany) in the presence of 12 different concentrations of analyte (0-5000 nM, 100 μL/well). After incubation, the mixture was removed and the wells were washed 3 times with PBS using a multiscreen vacuum manifold (Millipore, Billerica, Mass.). Cell-bound radioactivity was measured using a gamma counter (Packard Cobra II, GMI, Minnesota, USA). The 50% inhibitory concentration (IC50) values were calculated by fitting the data using a nonlinear regression algorithm (GraphPad Software).

Where a SMILES comes first, the peptide text is derived from it. [ ]: non-standard residue; d: D form. The star is where a group is joined. DOTA = O=C(O)CN1CCN(CC(=O)O)CCN(CC(=O)*)CCN(CC(=O)O)CC1; EuK = O=C(O)CC[C@H](NC(=O)N[C@@H](CCCCN*)C(=O)O)C(=O)O; 2Nal = N[C@@H](Cc1ccc2ccccc2c1)C(=O)O; Trx = NC[C@H]1CC[C@H](C(=O)O)CC1

T1 sequence (Q04609 whole entry): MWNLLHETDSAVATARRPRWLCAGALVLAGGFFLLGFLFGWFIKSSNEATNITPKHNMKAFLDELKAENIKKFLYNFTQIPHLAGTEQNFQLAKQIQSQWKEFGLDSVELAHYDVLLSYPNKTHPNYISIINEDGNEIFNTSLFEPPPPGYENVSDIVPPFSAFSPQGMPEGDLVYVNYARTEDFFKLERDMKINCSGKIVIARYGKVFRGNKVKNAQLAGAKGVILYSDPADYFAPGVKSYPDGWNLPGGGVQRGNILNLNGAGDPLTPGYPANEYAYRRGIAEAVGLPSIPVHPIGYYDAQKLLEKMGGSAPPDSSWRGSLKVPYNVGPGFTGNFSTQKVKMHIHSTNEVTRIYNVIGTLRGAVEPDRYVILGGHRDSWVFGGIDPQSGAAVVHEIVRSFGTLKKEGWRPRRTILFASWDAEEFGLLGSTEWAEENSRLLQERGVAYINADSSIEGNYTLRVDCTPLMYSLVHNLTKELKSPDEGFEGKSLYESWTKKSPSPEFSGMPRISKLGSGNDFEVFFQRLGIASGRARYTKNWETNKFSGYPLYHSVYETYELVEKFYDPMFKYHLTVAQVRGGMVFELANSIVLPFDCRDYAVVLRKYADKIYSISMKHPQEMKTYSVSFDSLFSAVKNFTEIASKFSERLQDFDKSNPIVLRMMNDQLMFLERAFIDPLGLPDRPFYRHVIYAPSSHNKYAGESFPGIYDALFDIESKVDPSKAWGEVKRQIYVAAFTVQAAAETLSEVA

For the molecule `O=C([O-])CC[C@H](NC(=O)N[C@@H](CCCCNC(=O)[C@H](Cc1ccc2ccccc2c1)NC(=O)C1CCC(CNC(=O)CN2CCN(CC(=O)[O-])CCN(CC(=O)[O-])CCN(CC(=O)[O-])CC2)CC1)C(=O)[O-])C(=O)[O-].[225Ac].[H+].[H+].[H+]` (some centres unmarked) [225Ac-PSMA-617], the PSA value entry in experiment [1] (both patients) is listed as “fell below the detectability limit”. In addition, the response of patients entry in experiment [1] (two patients with extremely advanced and end-stage disease) is reported as “complete remission”.

One may read the IC50 as the point on the concentration scale where inhibition reaches its midpoint. For `O=C(O)CC[C@H](NC(=O)N[C@@H](CCCCNC(=O)[C@H](Cc1ccc2ccccc2c1)NC(=O)[C@H](Cc1c[nH]cn1)NC(=O)[C@H](CCC(=O)O)NC(=O)[C@H](Cc1c[nH]cn1)NC(=O)[C@H](CCC(=O)O)NC(=O)[C@H](Cc1c[nH]cn1)NC(=O)[C@H](CCC(=O)O)NC(=O)[C@H]1CC[C@H](CNC(=O)CN2CCN(CC(=O)O)CCN(CC(=O)O)CCN(CC(=O)O)CC2)CC1)C(=O)O)C(=O)O` [PS-3, DOTA-Chx-(EH)3-2NaI-PSMA] ({DOTA-Trx}-EHEHEH[2Nal]-EuK), in experiment [2], the “Specific Cell Surface Binding” value is 0.84 ± 0.03 % ID/10^5 cells and the “Specific Internalization” value was 0.24 ± 0.02 % ID/10^5 cells. Also, in experiment [2] (blocked), the “Cell Surface binding” value is 0.183 ± 0.025 % ID/10^5 cells and the Internalization is listed as 0.317 ± 0.025 % ID/10^5 cells. Moreover, in experiment [2] (not blocked), the “Cell Surface binding” value is listed as 1.023 ± 0.140 % ID/10^5 cells and the Internalization was found to be 0.557 ± 0.042 % ID/10^5 cells. Further, the IC50 in experiment [3] was 43.1 ± 9.63 nM.

Consider `O=C(O)CC[C@H](NC(=O)N[C@@H](CCCCNC(=O)[C@H](Cc1ccc2ccccc2c1)NC(=O)[C@H](CCC(=O)O)NC(=O)[C@H](CCC(=O)O)NC(=O)[C@H](CCC(=O)O)NC(=O)[C@H]1CC[C@H](CNC(=O)CN2CCN(CC(=O)O)CCN(CC(=O)O)CCN(CC(=O)O)CC2)CC1)C(=O)O)C(=O)O` [PS-9, DOTA-CHx-(E)3-2NaI-PSMA] ({DOTA-Trx}-EEE[2Nal]-EuK), for which, in experiment [2], the “Specific Cell Surface Binding” value was determined as 0.59 ± 0.09 % ID/10^5 cells and the “Specific Internalization” value was determined as 0.27 ± 0.07 % ID/10^5 cells. For the same molecule, in experiment [2] (blocked), the “Cell Surface binding” value amounted to 0.060 ± 0.021 % ID/10^5 cells and the Internalization is reported as 0.138 ± 0.046 % ID/10^5 cells. In experiment [2] (not blocked), the “Cell Surface binding” value was found to be 0.650 ± 0.083 % ID/10^5 cells and the Internalization is recorded as 0.410 ± 0.090 % ID/10^5 cells. In experiment [3], the IC50 turned out to be 23.4 ± 9.7 nM.

Consider `O=C(O)CC[C@H](NC(=O)N[C@@H](CCCCNC(=O)[C@H](Cc1ccc2ccccc2c1)NC(=O)[C@H]1CC[C@H](CNC(=O)[C@H](Cc2c[nH]cn2)NC(=O)[C@H](CCC(=O)O)NC(=O)[C@H](Cc2c[nH]cn2)NC(=O)[C@H](CCC(=O)O)NC(=O)[C@H](Cc2c[nH]cn2)NC(=O)[C@H](CCC(=O)O)NC(=O)[C@H](Cc2c[nH]cn2)NC(=O)[C@H](CCC(=O)O)NC(=O)CN2CCN(CC(=O)O)CCN(CC(=O)O)CCN(CC(=O)O)CC2)CC1)C(=O)O)C(=O)O` [PS-4, DOTA-(EH)4-CHx-2NaI-PSMA] ({DOTA}-EHEHEHEH[Trx][2Nal]-EuK), for which, in experiment [2], the “Specific Cell Surface Binding” value amounted to 1.33 ± 0.09 % ID/10^5 cells and the “Specific Internalization” value is 0.52 ± 0.04 % ID/10^5 cells. In experiment [2] (blocked), the “Cell Surface binding” value is 0.083 ± 0.029 % ID/10^5 cells and the Internalization came out at 0.151 ± 0.048 % ID/10^5 cells. For the same molecule, in experiment [2] (not blocked), the “Cell Surface binding” value is 1.420 ± 0.113 % ID/10^5 cells and the Internalization is reported as 0.676 ± 0.070 % ID/10^5 cells. Besides, the IC50 in experiment [3] turned out to be 46.7 ± 37.3 nM.

Values taken from US20220118121A1, “PROSTATE SPECIFIC MEMBRANE ANTIGEN (PSMA) LIGANDS WITH IMPROVED TISSUE SPECIFICITY” (Ruprecht-Karls-Universität Heidelberg, priority 2019, published 2022).
